According to ChEMBL document CHEMBL1201862, “PubChem BioAssay data set” (2004):
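Interpolation was linear, between the two tested concentrations surrounding the appropriate level; five concentrations were tested over 48 hours in 96-well plates. GI50 marks 50% less growth.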 Active and inactive are the calls of the source. Rule as the data show it: active = GI50 up to about 1.1 µM and inactive = higher. Non-standard residues stand in square brackets, D forms with d. Residues, ends and D or L forms follow the SMILES beside them. ξ: configuration not given here. *: point of attachment. ξHyp = O=C(O)C1CC(O)CN1; Cbz = O=C(OCc1ccccc1)*

What was measured:
Experiment in all cases: growth of human tumour cells (NCI), 48 h
ACHN = system: ACHN
HCT-15 = system: HCT-15
HL-60 = system: HL-60
HOP-62 = system: HOP-62
IGROV-1 = system: IGROV-1
KM12 = system: KM12
OVCAR-4 = system: OVCAR-4
SK-MEL-28 = system: SK-MEL-28
SK-MEL-5 = system: SK-MEL-5
SN12C = system: SN12C
TK-10 = system: TK-10
U-251 = system: U-251
UACC-257 = system: UACC-257
HCC 2998 = system: HCC 2998
NCI-H226 = system: NCI-H226
NCI-H460 = system: NCI-H460
NCI/ADR-RES = system: NCI/ADR-RES
OVCAR-3 = system: OVCAR-3
HOP-18 = system: HOP-18
SNB-78 = system: SNB-78

Measured: GI50

CC(=O)Nc1oc(C)nc1C#N
> 100 µM: HCT-15
inactive: ACHN > 100 µM | HL-60 > 100 µM | HOP-62 > 100 µM | IGROV-1 > 100 µM | KM12 > 100 µM | OVCAR-4 > 100 µM | SK-MEL-28 > 100 µM | SK-MEL-5 > 100 µM | SN12C > 100 µM | TK-10 > 100 µM | U-251 > 100 µM | UACC-257 > 100 µM

CCCC[C@H]1[C@@H](OCOc2ccccc2)COC(=O)N1[C@H](C)c1ccccc1
15.9 µM: HCT-15
inactive: ACHN 18.2 µM | HCC 2998 17.7 µM | HL-60 18 µM | HOP-62 13.8 µM | IGROV-1 14.7 µM | KM12 12.9 µM | NCI-H226 > 100 µM | NCI-H460 12.6 µM | NCI/ADR-RES > 34.3 µM | OVCAR-3 14.7 µM | OVCAR-4 10.3 µM | SK-MEL-28 21.6 µM | SK-MEL-5 4.03 µM | SN12C 10.2 µM | TK-10 15.6 µM | U-251 14.7 µM | UACC-257 9.66 µM

N#CCCC1(CCC#N)CCCCCCC(CCC#N)(CCC#N)C(O)C1O (stereo not drawn)
inactive: ACHN > 100 µM | HCC 2998 > 100 µM | HOP-62 > 100 µM | IGROV-1 > 100 µM | KM12 > 100 µM | NCI-H226 53.8 µM | NCI-H460 > 100 µM | NCI/ADR-RES > 100 µM | OVCAR-3 > 100 µM | OVCAR-4 > 100 µM | SK-MEL-28 > 100 µM | SK-MEL-5 > 100 µM | SN12C 52.2 µM | TK-10 > 100 µM | U-251 > 100 µM | UACC-257 > 100 µM
> 100 µM: HCT-15

CCOC(=O)CCc1c(C)c2c(OC(C)=O)cc(OC(C)=O)cc2oc1=O
inactive: ACHN 28.1 µM | HCC 2998 82.8 µM | HL-60 40.2 µM | HOP-18 > 100 µM | HOP-62 > 100 µM | KM12 37.4 µM | NCI-H226 > 10 µM | NCI-H460 32.5 µM | OVCAR-3 27.4 µM | OVCAR-4 42 µM | SK-MEL-28 42 µM | SN12C 28.4 µM | SNB-78 47.6 µM | TK-10 > 100 µM | U-251 55.6 µM | UACC-257 38.9 µM

CCOC(=O)C(O)(NC(=O)c1ccc(F)cc1)C(F)(F)F (stereo not drawn)
> 100 µM: HCT-15
inactive: ACHN > 100 µM | HCC 2998 > 100 µM | HL-60 > 100 µM | HOP-62 > 100 µM | IGROV-1 57 µM | KM12 > 100 µM | NCI-H226 > 100 µM | NCI/ADR-RES > 100 µM | OVCAR-3 > 100 µM | OVCAR-4 > 100 µM | SK-MEL-28 > 100 µM | SK-MEL-5 > 100 µM | SN12C > 100 µM | TK-10 > 100 µM | U-251 > 100 µM | UACC-257 > 100 µM

C/N=C1\S/C(=N\c2ccc(N(C)C)cc2)N1C
30.5 µM: HCT-15
inactive: HCC 2998 33.2 µM | HL-60 34.4 µM | HOP-18 35 µM | HOP-62 > 100 µM | IGROV-1 51.8 µM | KM12 57.1 µM | NCI-H226 52.1 µM | NCI-H460 36.3 µM | OVCAR-3 39.4 µM | OVCAR-4 44.1 µM | SK-MEL-28 38.8 µM | SK-MEL-5 25.2 µM | SN12C 31 µM | SNB-78 22.9 µM | TK-10 55.7 µM | U-251 33.9 µM | UACC-257 47.8 µM

CCN(CC)CCOC(=O)c1ccc(N)cc1.CCOC(=O)Nc1ccc(S(=O)(=O)OC)cc1.CCOC(=O)Nc1ccc(S(=O)(=O)OC)cc1.Nc1ccc(C(=O)O)c(O)c1
> 100 µM: HCT-15
inactive: ACHN > 100 µM | HCC 2998 > 100 µM | HL-60 > 100 µM | HOP-18 > 100 µM | HOP-62 > 100 µM | IGROV-1 > 100 µM | KM12 > 100 µM | NCI-H226 > 100 µM | NCI-H460 > 100 µM | OVCAR-3 > 100 µM | OVCAR-4 > 100 µM | SK-MEL-28 > 100 µM | SK-MEL-5 > 100 µM | SN12C > 100 µM | SNB-78 > 100 µM | TK-10 > 100 µM | U-251 > 100 µM | UACC-257 > 100 µM

O=C(O)C1CCCCN1C(=O)c1ccccc1 (stereo not drawn)
inactive: ACHN > 100 µM | HCC 2998 > 100 µM | HL-60 > 100 µM | HOP-18 > 100 µM | HOP-62 > 100 µM | IGROV-1 > 100 µM | KM12 > 100 µM | NCI-H460 > 100 µM | OVCAR-3 > 100 µM | OVCAR-4 > 100 µM | SK-MEL-28 > 100 µM | SK-MEL-5 > 100 µM | SN12C > 100 µM | SNB-78 > 100 µM | TK-10 > 100 µM | U-251 > 100 µM | UACC-257 > 100 µM
> 100 µM: HCT-15

CC1=NN(C(=O)c2cc(Cl)cc([N+](=O)[O-])c2)C(=O)C1/N=N/c1ccccc1C(=O)O (stereo not drawn)
inactive: ACHN > 100 µM | HCC 2998 > 100 µM | HL-60 > 100 µM | HOP-18 > 100 µM | IGROV-1 > 100 µM | KM12 > 100 µM | NCI-H226 > 100 µM | NCI-H460 > 100 µM | OVCAR-3 > 100 µM | SK-MEL-28 > 100 µM | SK-MEL-5 > 100 µM | SN12C > 100 µM | SNB-78 > 100 µM | TK-10 > 100 µM | U-251 > 100 µM | UACC-257 > 100 µM

COc1cc(C(C)O)c(S(=O)(=O)CC(C)O)nn1 (stereo not drawn)
inactive: ACHN > 100 µM | HCC 2998 > 100 µM | HL-60 > 100 µM | IGROV-1 > 100 µM | KM12 > 100 µM | NCI-H226 64.1 µM | NCI-H460 > 100 µM | NCI/ADR-RES > 100 µM | OVCAR-3 > 100 µM | OVCAR-4 > 100 µM | SK-MEL-28 > 100 µM | SK-MEL-5 > 100 µM | SN12C > 100 µM | TK-10 > 100 µM | UACC-257 > 100 µM
> 100 µM: HCT-15

NC(=O)CNC(=O)C1CC(O)CN1C(=O)OCc1ccccc1 (stereo not drawn) (Cbz-[ξHyp]-Gly-NH2)
> 100 µM: HCT-15
inactive: ACHN > 100 µM | HCC 2998 > 100 µM | HL-60 > 100 µM | HOP-62 > 100 µM | IGROV-1 > 100 µM | KM12 > 100 µM | NCI-H226 > 100 µM | NCI-H460 > 100 µM | NCI/ADR-RES > 100 µM | OVCAR-3 > 100 µM | OVCAR-4 > 100 µM | SK-MEL-28 > 100 µM | SK-MEL-5 > 100 µM | SN12C > 100 µM | TK-10 > 100 µM | U-251 > 100 µM | UACC-257 > 100 µM

COc1cccc(N2C(=O)C3c4[nH]c5ccc(C)cc5c4C4CCC(C(C)(C)C)CC4C3C2=O)c1 (stereo not drawn)
inactive: ACHN > 10 µM | HCC 2998 4.11 µM | HL-60 1.95 µM | HOP-62 > 10 µM | IGROV-1 > 10 µM | KM12 3.52 µM | NCI-H226 3.01 µM | NCI-H460 2.21 µM | NCI/ADR-RES 3.51 µM | OVCAR-3 5.46 µM | OVCAR-4 6.27 µM | SK-MEL-28 4.61 µM | SK-MEL-5 7.67 µM | SN12C 3.15 µM | TK-10 > 10 µM | U-251 3.52 µM
6.35 µM: HCT-15

Cc1ccccc1OCC(COC(=O)Nc1ccccc1)OC(=O)Nc1ccccc1 (stereo not drawn)
inactive: ACHN > 100 µM | HCC 2998 83.8 µM | HL-60 4.28 µM | HOP-18 34.4 µM | HOP-62 31.9 µM | IGROV-1 > 100 µM | KM12 26.3 µM | NCI-H226 25.8 µM | NCI-H460 20.2 µM | OVCAR-3 87.7 µM | OVCAR-4 13.1 µM | SK-MEL-28 > 100 µM | SK-MEL-5 > 100 µM | SN12C 26.8 µM | SNB-78 22.2 µM | TK-10 > 100 µM | U-251 38 µM | UACC-257 > 100 µM
> 100 µM: HCT-15

Cc1[nH]c(=O)[nH]c(=O)c1C(=O)N(CCO)Cc1ccccc1
> 100 µM: HCT-15
inactive: ACHN > 100 µM | HCC 2998 > 100 µM | HL-60 > 100 µM | HOP-62 > 100 µM | IGROV-1 33 µM | KM12 > 100 µM | NCI-H226 17 µM | NCI-H460 > 100 µM | OVCAR-3 > 100 µM | OVCAR-4 29.3 µM | SK-MEL-28 > 100 µM | SN12C > 100 µM | TK-10 > 100 µM | U-251 > 100 µM | UACC-257 34.7 µM

CC1=C[C@]2(CC(C)C3C(CC4(C)C5CCC6C(C)(C)C(=O)CC[C@@]67C[C@@]57CC[C@]34C)O2)OC1=O (stereo partly drawn)
7.64 µM: HCT-15
inactive: ACHN 24.6 µM | HCC 2998 18.1 µM | HOP-18 6.43 µM | IGROV-1 6.32 µM | KM12 18.9 µM | NCI-H226 1.88 µM | NCI-H460 19.4 µM | OVCAR-4 19 µM | SK-MEL-28 18.6 µM | SK-MEL-5 2.65 µM | SN12C 41.1 µM | SNB-78 23.2 µM | TK-10 26 µM | U-251 14.6 µM | UACC-257 8.63 µM
active: HL-60 0.968 µM

CCc1cc2c(cc1CCCC(=O)O)CC1(Cc3ccc(C(=O)O)cc3C1)C2 (stereo not drawn)
> 100 µM: HCT-15
inactive: ACHN > 100 µM | HCC 2998 > 100 µM | HL-60 > 100 µM | HOP-62 > 100 µM | IGROV-1 > 100 µM | KM12 > 100 µM | NCI-H226 > 100 µM | NCI-H460 > 100 µM | NCI/ADR-RES > 100 µM | OVCAR-3 > 100 µM | OVCAR-4 > 100 µM | SK-MEL-28 > 100 µM | SK-MEL-5 > 100 µM | SN12C > 100 µM | TK-10 > 100 µM | U-251 > 100 µM | UACC-257 > 100 µM
